Experimental data taken from patent US9241964B2, “Composition from Sphaeranthus indicus and Garcinia mangostana for the control of metabolic syndrome” (LAILA NUTRACEUTICALS, priority 2009, dated 2016).
Converted amounts (≈) assume the structure as drawn.

Assays:
[1] = system: Matrix Metalloproteinase-3 (MMP-3); assay: Inhibition of MMP-3 production in IL-1β induced A549 cells (ELISA); assay type: cell-based; details: 10 ng/mL IL-1β induced A549 human lung tumor cells, 24 h, supernatant ELISA
Method: A549 cells were induced with 10 ng/ml human IL-1β in absence or presence of different concentrations of LI/DD-II/054A/01 for 24 h as indicated. Secreted MMP-3 concentration in the cell free culture supernatants was measured using MMP-3 ELISA Development Kit (R&D System, Minneapolis, Minn., USA). The MMP-3 concentration in culture supernatants was estimated quantitatively from the standard curve generated using known concentrations of MMP-3. Percentage of MMP-3 inhibition at each concentration of test compound was calculated from the formula: {(Conc. of MMP-3 in IL-1β induced−Conc. of MMP-3 in the test well)×100}÷Conc. of MMP-3 in IL-1β induced wells.
MMP-3 was evaluated in Interleukin-1β induced human lung tumor cell line A549. Briefly, the cells were cultured in DMEM with 2 mM Glutamine, 100 U/mL penicillin, […] streptomycin and 10% fetal bovine serum (Hyclone, Logan, Utah). Five thousand cells per well were seeded into a 96-well cell culture plate (Corning, USA) one day before the experiment. The culture media was replaced with fresh DMEM containing 10% fetal bovine serum. […] The MMP-3 concentration in culture supernatant was estimated quantitatively by interpolating the optical densities into the standard curve generated from known concentrations of MMP-3. […]

PPARγ = assay: Immunoblot of PPARγ in 3T3-L1 adipocytes; assay type: cell-based, mouse; details: immunoblot normalized with actin
Source text: (§1) The inventors have then evaluated the modulation of metabolic biomarkers those are primarily responsible for the adipogenesis processes, insulin resistance in type 2 diabetes, obesity, metabolic syndrome and other metabolic disorders such as Peroxisome proliferator-activated receptor gamma (PPARγ), CD36, adipocyte fatty acid binding protein 4 (FABP4 or aP2), Perilipin, and beta-3 Adrenergic Receptor (β3AR) during adipogenesis process in 3T3-L1 adipocytes by ethyl actate extract (LI/DD-II/054A/01) of Sphaeranthus indicus and 7-hydroxyfrullanolide (LI054A01) using an immunoblot assay. […] The protein extracts were evaluated by immunoblot assay, and the immuno-reactive bands were developed with West-pico chemiluminescent substrate and the blot images were captured in a Kodak Image Station, normalized with expression of actin.
(§2) Experimental protocol: Mouse pre-adipocyte 3T3-L1 cells are maintained in Dulbecco's Modified Eagles Medium (DMEM) supplemented with 2 mM glutamine, 4.5 g/L glucose and 10% fetal bovine serum. […] Protein content was measured in Bradford method by using Coomassie blue dye and cell lysates were stored in aliquots at −80° C. until further use. […]
(§3) Inhibition of protein expression of biomarker molecules adipocytes in presence or absence of Sphaeranthus indicus extract LI/DD-II/054A/01 and 7-hydroxyfrullanolide (LI054A01) was evaluated in immunoblot assay. […]

perilipin = assay: Immunoblot of perilipin in 3T3-L1 adipocytes; assay type: cell-based, mouse; details: immunoblot normalized with actin
Source text: as §1, §2, §3

**Q.** Which results are given for `C=C1C(=O)O[C@H]2C3=C(C)CCC[C@]3(C)CC[C@@]12O` [LI054A01, 7-α-hydroxy-4,11(13)-eudesmadien-12,6-olide]?
**A.** IC50 against MMP-3 [1]: 0.075 µg/mL (≈ 0.302 µM); PPARγ protein level (PPARγ): potently ameliorated; perilipin protein level (perilipin): potently ameliorated
